Measured values from patent publication US7344706B2, “UV absorber compositions comprising a hydroxyphenyltriazine compound” (Ciba Specialty Chemicals Corp., priority 2002, dated 2008).

What was measured:
[1] = Solubility in cosmetic oils; type: physicochemical; conditions: percentages refer to weight
[2] = Spectral properties (UV absorption); type: physicochemical
Description: Spectral Properties: [table]

## CCCCC(CC)COc1ccc(-c2nc(-c3ccc(OC)cc3)nc(-c3ccc(OCC(CC)CCCC)cc3OCC(CC)CCCC)n2)c(O)c1 (centres unmarked) [Example 1, 2-((2,4-(2-ethyl-hexyloxy)-phenyl))-4-((2-hydroxy-4-(2-ethyl-hexyloxy)-phenyl))-6-(4-methoxyphenyl)-(1,3,5)-triazine]
[1]; solvent di-C12-C13alkylmalates
  solubility in di-C12-C13alkylmalates: > 25%
[1]; solvent glyceryl-trioctanoate
  solubility in glyceryl-trioctanoate: > 30%
[2]
  ε: 50443 liters/(mol/cm)
  λmax: 322 nm
[2]; in dioxane
  E [1%, 1 cm] (in dioxane): 681.62
